For 19 molecules, IC50 results are on record in US9365576B2, “Pyrrolopyrrolidinone compounds” (Novartis AG, priority 2012, dated 2016).

One may read the IC50 as the concentration that inhibits the measured activity by half.

Common to all, as to assay type: binding
Assay [1] concerns the target T1, human MDM2 protein (amino acids 2-188) (Homo sapiens (Human), UniProt Q00987). The experiment in a line: TR-FRET assay, p53-MDM2 Assay 1. The note with it: 1.25 nM MDM2-biotinylated, 10 nM Cy5-p53 peptide. As to the method:
(§1) The inhibition of p53-MDM2 and p53-MDM4 interactions is measured by time resolved fluorescence energy transfer (TR-FRET). Fluorescence energy transfer (or Foerster resonance energy transfer) describes an energy transfer between donor and acceptor fluorescent molecules. For this assay, human MDM2 protein (amino acids 2-188) and human MDM4 protein (amino acids 2-185), tagged with a C-terminal biotin moiety, are used in combination with a Europium labeled streptavidin (Perkin Elmer, Inc., Waltham, Mass., USA) serving as the donor fluorophore. The p53 derived, Cy5 labeled peptide Cy5-TFSDLWKLL (p53 aa18-26) is the energy acceptor. Upon excitation of the donor molecule at 340 nm, binding interaction between MDM2 or MDM4 and the p53 peptide induces energy transfer and enhanced response at the acceptor emission wavelength at 665 nm. Disruption of the formation of the p53-MDM2 or p53-MDM4 complex due to an inhibitor molecule binding to the p53 binding site of MDM2 or MDM4 results in increased donor emission at 620 nm. The ratiometric FRET assay readout is calculated from the raw data of the two distinct fluorescence signals measured in time resolved mode (fluorescence 665 nm/fluorescence 620 nm×1000).
(§2) After addition of 1.25 nM MDM2-biotinylated or 2.5 nM MDM4-biotinylated (internal preparations), and 0.625 nM Europium labeled streptavidin (Perkin Elmer), the solution is pre-incubated for 15 minutes at room temperature, then 10 nM Cy5-p53 peptide (internal preparation) is added before an incubation at room temperature for 15 minutes prior to reading the plate. For measurement of samples, a Victor II microplate reader (Perkin Elmer) is used with the following settings: Excitation 340 nm, Emission Donor 620 nm and Emission Acceptor 665 nm. IC50 values are calculated by curve fitting using XLfit. If not specified, reagents are purchased from Sigma-Aldrich Chemie GmBH, Buchs, Switzerland.
(§3) This assay was used to evaluate compounds displaying inhibition of p53-MDM2 interaction and p53-MDM4 interaction at IC50s of 0.005 to 50 μM (p53-MDM2 Assay 1 and p53-MDM4 Assay 1, respectively). For selected compounds displaying IC50s between […] on MDM2, a slightly modified assay is used with the following adaptations: 0.1 nM MDM2, 0.1 nM Europium labeled streptavidin and Tecan genios Pro is used as a microplate reader for the fluorescence measurements (p53-MDM2 Assay 2).
(In general: Time-resolved FRET reads energy transfer from a long-lived donor to a nearby acceptor.)

In assay [2] the target is T1, human MDM2 protein (amino acids 2-188). As to the kind of experiment: TR-FRET assay, p53-MDM2 Assay 2 (modified). The note with it: TR-FRET; 0.1 nM MDM2, 0.1 nM Europium labeled streptavidin, Tecan genios Pro reader; read-out: IC50 p53-MDM2 Assay 2. The procedure, abridged: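 Biotinylated human MDM2 (aa 2–188, 1.25 nM) was preincubated 15 min at room temperature with 0.625 nM Eu-streptavidin, then 10 nM Cy5-p53 peptide (aa 18–26) added for 15 min. TR-FRET ratio 665/620 nm (excitation 340 nm) was read; IC50 came from curve fitting.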

Assay [3] concerns the target human MDM4 protein (amino acids 2-185) (Homo sapiens (Human), UniProt O15151). The experiment in a line: TR-FRET assay, p53-MDM4 Assay 1. To be noted: 2.5 nM MDM4-biotinylated, 10 nM Cy5-p53 peptide. As to the method: as §1, §2, §3

Chain of human MDM4 protein (amino acids 2-185) (O15151 2-185): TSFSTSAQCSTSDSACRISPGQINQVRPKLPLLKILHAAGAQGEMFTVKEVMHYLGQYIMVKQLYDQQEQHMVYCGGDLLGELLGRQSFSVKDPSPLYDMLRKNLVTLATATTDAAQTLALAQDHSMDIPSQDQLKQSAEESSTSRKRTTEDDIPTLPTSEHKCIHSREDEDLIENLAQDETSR
T1 sequence (Q00987 2-188): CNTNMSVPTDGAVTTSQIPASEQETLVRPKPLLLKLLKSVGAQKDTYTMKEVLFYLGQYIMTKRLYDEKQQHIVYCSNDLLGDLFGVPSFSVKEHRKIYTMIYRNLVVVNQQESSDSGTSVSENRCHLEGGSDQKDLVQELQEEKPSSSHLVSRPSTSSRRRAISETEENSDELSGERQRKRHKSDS

In the case of `COc1nc(N)ncc1-c1cc2c(n1C(C)C)C(c1ccc(Cl)cc1)N(C1CCC(=O)N(C)C1)C2=O` (stereo not drawn) [Example 108, 2-(2-Amino-4-methoxy-pyrimidin-5-yl)-6-(4-chloro-phenyl)-1-isopropyl-5-(1-methyl-6-oxo-piperidin-3-yl)-5,6-dihydro-1H-pyrrolo[3,4-b]pyrrol-4-one], the results for the IC50 in assay [1], in assay [2] and in assay [3] were 3.3 nM, 3.7 nM and 9020 nM, respectively.
As for `COc1ncc(-c2cc3c(n2C2CC2)C(c2ccc(Cl)cc2)N(c2cc(C)c(=O)n(C)c2)C3=O)c(OC)n1` (stereo not drawn) [Example 240, 6-(4-Chlorophenyl-1)-1-cyclopropyl-2-(2,4-dimethoxypyrimidin-5-yl)-5-(1,5-dimethyl-6-oxo-1,6-dihydropyridin-3-yl)-5,6-dihydropyrrolo[3,4-b]pyrrol-4(1H)-one], the results for the IC50 in assay [1] and in assay [3] were 33.3 nM and 77600 nM, respectively.
As for `COc1nc(N)ncc1-c1cc2c(n1C(C)C)C(c1ccc(Cl)cc1)N(C1CCOCC1)C2=O` (stereo not drawn) [Example 78, 2-(2-Amino-4-methoxy-pyrimidin-5-yl)-6-(4-chloro-phenyl)-1-isopropyl-5-(tetrahydro-pyran-4-yl)-5,6-dihydro-1H-pyrrolo[3,4-b]pyrrol-4-one], the IC50 was determined as 8.5 nM in assay [1], 5.08 nM in assay [2] and 14000 nM in assay [3].
For `CNC(=O)c1ccc(OC)c(-c2cc3c(n2C(C)C)[C@H](c2ccc(Cl)cc2C)N(c2cccc(Cl)c2F)C3=O)c1` [Example 7, 3-[(S)-5-(3-Chloro-2-fluoro-phenyl)-6-(4-chloro-2-methyl-phenyl)-1-isopropyl-4-oxo-1,4,5,6-tetrahydro-pyrrolo[3,4-b]pyrrol-2-yl]-4-methoxy-N-methyl-benzamide] the same measures were 0.6 nM, 0.119 nM and 507 nM.
Consider `CNC(=O)c1ccc(OC)c(-c2cc3c(n2C(C)C)C(c2ccc(Cl)cc2)N(c2cc(Cl)ccc2C)C3=O)c1` (stereo not drawn) [Example 10, 3-[5-(5-Chloro-2-methyl-phenyl)-6-(4-chloro-phenyl)-1-isopropyl-4-oxo-1,4,5,6-tetrahydro-pyrrolo[3,4-b]pyrrol-2-yl]-4-methoxy-N-methyl-benzamide], for which the IC50 in assay [1] was 0.9 nM; in assay [2] it was 0.116 nM; in assay [3] it was 478 nM.
For `COc1ncc(-c2cc3c(n2C2CC2)C(c2ccc(Cl)cc2)N(c2cc(C)c(=O)n(C)c2)C3=O)cn1` (stereo not drawn) [Example 241, 6-(4-Chlorophenyl)-1-cyclopropyl-5-(1,5-dimethyl-6-oxo-1,6-dihydropyridin-3-yl)-2-(2-methoxypyrimidin-5-yl)-5,6-dihydropyrrolo[3,4-b]pyrrol-4(1H)-one], the IC50 in assay [1] is 3920 nM; in assay [3], more than 100000 nM.
Take `COc1ccc(C(=O)NOCCO)cc1-c1cc2c(n1C(C)C)C(c1ccc(Cl)cc1)N(c1cc(Cl)ccc1C)C2=O` (stereo not drawn) [Example 37, 3-[5-(5-Chloro-2-methyl-phenyl)-6-(4-chloro-phenyl)-1-isopropyl-4-oxo-1,4,5,6-tetrahydro-pyrrolo[3,4-b]pyrrol-2-yl]-N-(2-hydroxy-ethoxy)-4-methoxy-benzamide]: the IC50 amounted to 1.1 nM in assay [1], 0.125 nM in assay [2] and 327 nM in assay [3].
As to `COc1ccc(F)cc1-c1cc2c(n1C(C)C)C(c1ccc(Cl)cc1C)N(c1cccc(Cl)c1F)C2=O` (stereo not drawn) [Example 3, 5-(3-Chloro-2-fluoro-phenyl)-6-(4-chloro-2-methyl-phenyl)-2-(5-fluoro-2-methoxy-phenyl)-1-isopropyl-5,6-dihydro-1H-pyrrolo[3,4-b]pyrrol-4-one], the IC50 in assay [1] is 6 nM; in assay [3], 54200 nM.
`COc1ccccc1-c1cc2c(n1C(C)C)C(c1ccc(Cl)cc1)N(c1cc(Cl)ccc1C)C2=O` (stereo not drawn) [Example 9, 5-(5-Chloro-2-methyl-phenyl)-6-(4-chloro-phenyl)-1-isopropyl-2-(2-methoxy-phenyl)-5,6-dihydro-1H-pyrrolo[3,4-b]pyrrol-4-one]: the IC50 in assay [1] is 0.6 nM; in assay [2], 0.298 nM; in assay [3], 4030 nM.
As to `Cc1cc(N2C(=O)c3cc(-c4ccn(C)c(=O)c4)n(C4CC4)c3C2c2ccc(Cl)cc2)cn(C)c1=O` (stereo not drawn) [Example 242, 6-(4-Chlorophenyl)-1-cyclopropyl-5-(1,5-dimethyl-6-oxo-1,6-dihydropyridin-3-yl)-2-(1-methyl-2-oxo-1,2-dihydropyridin-4-yl)-5,6-dihydropyrrolo[3,4-b]pyrrol-4(1H)-one], the figures for the IC50 in assay [1] and in assay [3] were 2040 nM and more than 100000 nM, respectively.
As to `COc1ccc(C(=O)N2CCOCC2)cc1-c1cc2c(n1C(C)C)C(c1ccc(Cl)cc1)N(c1ccc(F)c(Cl)c1)C2=O` (stereo not drawn) [Example 55, 5-(3-Chloro-4-fluoro-phenyl)-6-(4-chloro-phenyl)-1-isopropyl-2-[2-methoxy-5-(morpholine-4-carbonyl)-phenyl]-5,6-dihydro-1H-pyrrolo[3,4-b]pyrrol-4-one], the IC50 in assay [2] amounted to 0.287 nM.
Same read-out and setting: as for `COc1ncc(-c2cc3c(n2C(C)C)C(c2ccc(Cl)cc2)N([C@H]2CC[C@H](OC)CC2)C3=O)c(OC)n1` (stereo partly drawn) [Example 143, 6-(4-Chloro-phenyl)-2-(2,4-dimethoxy-pyrimidin-5-yl)-1-isopropyl-5-(trans-4-methoxy-cyclohexyl)-5,6-dihydro-1H-pyrrolo[3,4-b]pyrrol-4-one], the figure is 1.69 nM.
As to `COc1ccccc1-c1cc2c(n1C(C)C)C(c1ccc(Cl)cc1C)N(c1cccc(Cl)c1F)C2=O` (stereo not drawn) [Example 1, 5-(3-Chloro-2-fluoro-phenyl)-6-(4-chloro-2-methyl-phenyl)-1-isopropyl-2-(2-methoxy-phenyl)-5,6-dihydro-1H-pyrrolo[3,4-b]pyrrol-4-one], the IC50 in assay [1] worked out at 9.5 nM; in assay [3], 27800 nM.
Take `CNC(=O)c1ccc(OC)c(-c2cc3c(n2C(C)C)C(c2ccc(Cl)cc2)N(c2cc(Cl)ccc2C#N)C3=O)c1` (stereo not drawn) [Example 97, 3-[5-(5-Chloro-2-cyano-phenyl)-6-(4-chloro-phenyl)-1-isopropyl-4-oxo-1,4,5,6-tetrahydro-pyrrolo[3,4-b]pyrrol-2-yl]-4-methoxy-N-methyl-benzamide]: the IC50 in assay [2] stood at 0.378 nM.
In the case of `Cc1ccc(Cl)cc1N1C(=O)c2cc(-c3ccccc3O)n(C(C)C)c2C1c1ccc(Cl)cc1` (stereo not drawn) [Example 29, 5-(5-Chloro-2-methyl-phenyl)-6-(4-chloro-phenyl)-2-(2-hydroxy-phenyl)-1-isopropyl-5,6-dihydro-1H-pyrrolo[3,4-b]pyrrol-4-one], the IC50 in assay [2] is 0.306 nM.
The same measure, in the same setting: for `COc1ncc(-c2cc3c(n2C(C)C)[C@@H](c2ccc(C#N)cc2)N(c2cc(Cl)cn(C)c2=O)C3=O)c(OC)n1` [Example 216, 4-[(R)-5-(5-Chloro-1-methyl-2-oxo-1,2-dihydro-pyridin-3-yl)-2-(2,4-dimethoxy-pyrimidin-5-yl)-1-isopropyl-4-oxo-1,4,5,6-tetrahydro-pyrrolo[3,4-b]pyrrol-6-yl]-benzonitrile] the value was 883 nM; for `COc1ccc(-c2cc3c(n2C(C)C)C(c2ccc(Cl)cc2)N(c2cc(Cl)ccc2C)C3=O)c(OC)n1` (stereo not drawn) [Example 22, 5-(5-Chloro-2-methyl-phenyl)-6-(4-chloro-phenyl)-2-(2,6-dimethoxy-pyridin-3-yl)-1-isopropyl-5,6-dihydro-1H-pyrrolo[3,4-b]pyrrol-4-one], 0.323 nM.
Same read-out and setting: as for `COc1ccc(CC(N)=O)cc1-c1cc2c(n1C(C)C)C(c1ccc(Cl)cc1)N(c1cc(Cl)ccc1C)C2=O` (stereo not drawn) [Example 80, 2-{3-[5-(5-Chloro-2-methyl-phenyl)-6-(4-chloro-phenyl)-1-isopropyl-4-oxo-1,4,5,6-tetrahydro-pyrrolo[3,4-b]pyrrol-2-yl]-4-methoxy-phenyl}-acetamide], the figure is 0.115 nM.
Still for that read-out and setting: for `COc1nc(N(C)C)ncc1-c1cc2c(n1C(C)C)C(c1ccc(Cl)cc1)N(c1c(F)c(C)nn1C)C2=O` (stereo not drawn) [Example 209, 6-(4-Chloro-phenyl)-2-(2-dimethylamino-4-methoxy-pyrimidin-5-yl)-5-(4-fluoro-2,5-dimethyl-2H-pyrazol-3-yl)-1-isopropyl-5,6-dihydro-1H-pyrrolo[3,4-b]pyrrol-4-one] the value was 0.158 nM.
